{
  "source": "paper PMC4022860",
  "about": "“Fragments of Bacterial Endoglycosidase S and Immunoglobulin G Reveal Subdomains of Each That Contribute to Deglycosylation” (The Journal of Biological Chemistry, 2014)",
  "target": "T1, EndoS CBM (carbohydrate binding module of endoglycosidase S) (Streptococcus pyogenes, UniProt Q99Y92)",
  "T1 construct": "isolated CBM domain, residues 761-924, C-terminal hexahistidine tag (pET303), 15N-labelled, expressed in E. coli BL21(DE3)",
  "T1 sequence (Q99Y92 761-924)": "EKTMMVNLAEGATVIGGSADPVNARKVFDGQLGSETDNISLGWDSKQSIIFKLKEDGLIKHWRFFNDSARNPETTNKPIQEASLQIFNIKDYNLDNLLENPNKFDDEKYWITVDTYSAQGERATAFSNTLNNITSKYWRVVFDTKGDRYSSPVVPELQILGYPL",
  "assay": "1H, […] HSQC NMR titration",
  "conditions": "0.15 mM 15N-CBM; 62.5 mM to 2 M ligand; 10 mM BisTris, pH 6.5, 15 mM NaCl, 37 °C",
  "data": [
    {"smiles": "OC[C@H]1OC(O)[C@H](O)[C@@H](O)[C@H]1O", "note": "(stereo partly drawn) [D-galactose]", "values": [
      {"measurement": "1H,15N HSQC NMR titration", "value": "four distinct peaks appeared upon D-galactose titration, which were visible from the lowest titration point"}
    ]}
  ]
}
